In patent publication US8859491B2 (priority 2011, dated 2014):
Non-standard residues stand in square brackets, D forms with d. No end group written: not given here. Aib = CC(C)(N)C(=O)O

Key:
[1] = Stability analysis in 100% human plasma (estrogen release); conditions: 1 mg/mL, pH 7.4, 37° C.
[2] = Administration of GLP-1 conjugates to diet induced obese mice (FIGS. 3-10, 12); type: in vivo; conditions: for change in blood glucose: FIG. 5b, SEQ ID NO: 1647 at high or low doses, SEQ ID NO: 1651 at high dose; for blood glucose levels: FIG. 7b
glucocorticoid receptor = biological target: T1, glucocorticoid receptor (Homo sapiens, UniProt P04150); assay: EC50
T1 construct: two clones of HeLa cells (ATCC #CCL-2) transfected with murine mammary tumor virus long terminal repeat-driven firefly luciferase; host or cells: HeLa

[3] = Administration of GLP-1 conjugates to db/db mice (FIG. 2); type: in vivo; conditions: high dose
[4] = Example 15: DIO mice, daily sc dosing; type: in vivo; conditions: high dose, between days 0 and 21
Protocol: Diet-induced obesity (DIO) mice (N=8, average initial body weight=59 g) were subcutaneously injected once per day for four weeks with vehicle or one of the following: […] Blood glucose levels were measured at the 0, 15, 30, 60, and 120 min time points. FIG. 4a presents data from this experiment. Body weight was measured after 21 days and the change in total body weight and fat mass were determined (FIGS. 4b-c).

[5] = Example 13: db/db mice, daily sc dosing; type: in vivo
Protocol: Mice (db/db, N=6, average initial body weight=54 g) were subcutaneously injected once per day for four weeks with vehicle or 40 or 400 μg/kg of one of the following:
Body weight was measured after 23 days and the change in body weight was determined (FIG. 2a).

[6] = Example 14: DIO mice, daily sc dosing; type: in vivo
Protocol: Diet-induced obesity (DIO) mice (N=8, 6 mice per group, average initial body weight=58 g) were subcutaneously injected once per day for four weeks with vehicle or 4, 40, or 400 μg/kg of one of the following:
A saline solution comprising 25% (v/v) glucose was injected at a dose of 1.5 g/kg of body weight at the 0 min time point on days 7 and 21. Blood glucose was measured at the 0, 15, 30, 60, and 120 min time points on day 7 and day 21 (FIG. 3a).
Body weight was measured after 23 days and the change in body weight, change in fat mass, and change in lean muscle mass were determined (FIGS. 3b-d).

[7] = high dose, between days 0 and 21, vs GLP-1(Aib2E16Cex K40) (SEQ ID NO: 1647) alone, FIG. 4d
[8] = over a period of 7 days, FIG. 7a
[9] = high dose (400 μg/kg-day), after 23 days
[10] = high dose, between days 0 and 14

T1 sequence (P04150 whole entry, looked up): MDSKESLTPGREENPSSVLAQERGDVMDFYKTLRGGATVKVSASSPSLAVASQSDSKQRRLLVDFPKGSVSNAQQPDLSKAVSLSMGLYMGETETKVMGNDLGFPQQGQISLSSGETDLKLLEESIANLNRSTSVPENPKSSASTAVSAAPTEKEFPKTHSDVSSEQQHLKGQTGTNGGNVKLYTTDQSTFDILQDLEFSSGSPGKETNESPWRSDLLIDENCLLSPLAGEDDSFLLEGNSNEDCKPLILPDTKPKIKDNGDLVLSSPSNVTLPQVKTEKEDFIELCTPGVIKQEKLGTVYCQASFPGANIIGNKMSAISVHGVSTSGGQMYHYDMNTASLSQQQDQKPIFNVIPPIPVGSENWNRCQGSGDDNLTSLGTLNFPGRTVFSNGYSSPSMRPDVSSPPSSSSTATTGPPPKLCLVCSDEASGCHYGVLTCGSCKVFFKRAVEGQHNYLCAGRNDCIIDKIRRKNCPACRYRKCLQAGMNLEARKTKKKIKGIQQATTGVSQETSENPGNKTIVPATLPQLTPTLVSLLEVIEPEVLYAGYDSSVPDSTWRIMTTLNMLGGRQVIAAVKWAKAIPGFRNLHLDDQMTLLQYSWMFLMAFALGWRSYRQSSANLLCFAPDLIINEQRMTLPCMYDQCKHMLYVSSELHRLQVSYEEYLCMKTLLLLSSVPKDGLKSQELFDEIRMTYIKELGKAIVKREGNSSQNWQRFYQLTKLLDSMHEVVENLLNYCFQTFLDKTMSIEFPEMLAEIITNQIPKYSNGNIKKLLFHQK

CC[C@H](C)[C@H](NC(=O)[C@H](Cc1ccccc1)NC(=O)[C@H](CCC(=O)O)NC(=O)[C@H](CCCCN)NC(=O)[C@H](C)NC(=O)[C@H](C)NC(=O)[C@H](CCC(N)=O)NC(=O)[C@H](CCC(=O)O)NC(=O)[C@H](CCC(=O)O)NC(=O)[C@H](CC(C)C)NC(=O)[C@H](Cc1ccc(O)cc1)NC(=O)[C@H](CO)NC(=O)[C@H](CO)NC(=O)[C@@H](NC(=O)[C@H](CC(=O)O)NC(=O)[C@H](CO)NC(=O)[C@@H](NC(=O)[C@H](Cc1ccccc1)NC(=O)[C@@H](NC(=O)CNC(=O)[C@H](CCC(=O)O)NC(=O)C(C)(C)NC(=O)[C@@H](N)Cc1c[nH]cn1)[C@@H](C)O)[C@@H](C)O)C(C)C)C(=O)N[C@@H](C)C(=O)N[C@@H](Cc1c[nH]c2ccccc12)C(=O)N[C@@H](CC(C)C)C(=O)N[C@H](C(=O)N[C@@H](CCCCN)C(=O)NCC(=O)NCC(=O)N1CCC[C@H]1C(=O)N[C@@H](CO)C(=O)N[C@@H](CO)C(=O)NCC(=O)N[C@@H](C)C(=O)N1CCC[C@H]1C(=O)N1CCC[C@H]1C(=O)N1CCC[C@H]1C(=O)N[C@@H](CO)C(=O)N[C@@H](CCCCNC(=O)CCC(=O)Oc1ccc2c(c1)CC[C@@H]1[C@@H]2CC[C@]2(C)[C@@H](OC(C)=O)CC[C@@H]12)C(N)=O)C(C)C [GLP-1/Estrogen(3-ester)]
estrogen release in plasma [1]: substantial estrogen release after 3 hours
time to complete estrogen release in plasma [1]: ≤ 6 h

GLP-1(Aib^2E^16Cex K^40) (H[Aib]EGTFTSDVSSYLEEQAAKEFIAWLVKGGPSSGAPPPSK-NH2) [SEQ ID NO: 1647]
change in blood glucose [2]: greatest change

CC[C@H](C)[C@H](NC(=O)[C@H](Cc1ccccc1)NC(=O)[C@H](CCC(=O)O)NC(=O)[C@H](CCCCN)NC(=O)[C@H](C)NC(=O)[C@H](C)NC(=O)[C@H](CCC(N)=O)NC(=O)[C@H](CCC(=O)O)NC(=O)[C@H](CCC(=O)O)NC(=O)[C@H](CC(C)C)NC(=O)[C@H](Cc1ccc(O)cc1)NC(=O)[C@H](CO)NC(=O)[C@H](CO)NC(=O)[C@@H](NC(=O)[C@H](CC(=O)O)NC(=O)[C@H](CO)NC(=O)[C@@H](NC(=O)[C@H](Cc1ccccc1)NC(=O)[C@@H](NC(=O)CNC(=O)[C@H](CCC(=O)O)NC(=O)C(C)(C)NC(=O)[C@@H](N)Cc1c[nH]cn1)[C@@H](C)O)[C@@H](C)O)C(C)C)C(=O)N[C@@H](C)C(=O)N[C@@H](Cc1c[nH]c2ccccc12)C(=O)N[C@@H](CC(C)C)C(=O)N[C@H](C(=O)N[C@@H](CCCCN)C(=O)NCC(=O)NCC(=O)N1CCC[C@H]1C(=O)N[C@@H](CO)C(=O)N[C@@H](CO)C(=O)NCC(=O)N[C@@H](C)C(=O)N1CCC[C@H]1C(=O)N1CCC[C@H]1C(=O)N1CCC[C@H]1C(=O)N[C@@H](CO)C(=O)NC(CCSSCCNC(=O)OCC(=O)[C@@]1(O)[C@H](C)C[C@H]2[C@@H]3CCC4=CC(=O)C=C[C@]4(C)[C@@]3(F)[C@@H](O)C[C@@]21C)C(N)=O)C(C)C (stereo partly drawn) [[Aib2, E16]GLP-1-CEX-homoCys40(S—SCH2CH2NHCO—O-DEX)]
EC50 (glucocorticoid receptor): 65.4 µM

CC[C@H](C)[C@H](NC(=O)[C@H](Cc1ccccc1)NC(=O)[C@H](CCC(=O)O)NC(=O)[C@H](CCCCN)NC(=O)[C@H](C)NC(=O)[C@H](C)NC(=O)[C@H](CCC(N)=O)NC(=O)[C@H](CCC(=O)O)NC(=O)[C@H](CCC(=O)O)NC(=O)[C@H](CC(C)C)NC(=O)[C@H](Cc1ccc(O)cc1)NC(=O)[C@H](CO)NC(=O)[C@H](CO)NC(=O)[C@@H](NC(=O)[C@H](CC(=O)O)NC(=O)[C@H](CO)NC(=O)[C@@H](NC(=O)[C@H](Cc1ccccc1)NC(=O)[C@@H](NC(=O)CNC(=O)[C@H](CCC(=O)O)NC(=O)C(C)(C)NC(=O)[C@@H](N)Cc1c[nH]cn1)[C@@H](C)O)[C@@H](C)O)C(C)C)C(=O)N[C@@H](C)C(=O)N[C@@H](Cc1c[nH]c2ccccc12)C(=O)N[C@@H](CC(C)C)C(=O)N[C@H](C(=O)N[C@@H](CCCCN)C(=O)NCC(=O)NCC(=O)N1CCC[C@H]1C(=O)N[C@@H](CO)C(=O)N[C@@H](CO)C(=O)NCC(=O)N[C@@H](C)C(=O)N1CCC[C@H]1C(=O)N1CCC[C@H]1C(=O)N1CCC[C@H]1C(=O)N[C@@H](CO)C(=O)NC(C(N)=O)C(C)(C)SSCCNC(=O)OCC(=O)[C@@]1(O)[C@H](C)C[C@H]2[C@@H]3CCC4=CC(=O)C=C[C@]4(C)[C@@]3(F)[C@@H](O)C[C@@]21C)C(C)C (stereo partly drawn) [[Aib2, E16]GLP-1-CEX-Pen40(S—SCH2CH2NHCO—O-DEX)]
EC50 (glucocorticoid receptor): 73.3 µM

GLP-1(Aib^2A^22CexK^40)/Estrogen(17-ester) (H[Aib]EGTFTSDVSSYLEGQAAKEAIAWLVKGGPSSGAPPPSK-NH2; not fully specified (residue 40)) [SEQ ID NO: 1656]
change in body weight ([3]; FIG. 2a): slightly greater decrease in body weight than mice that were administered GLP-1 alone, but similar to vehicle
blood glucose levels ([3]; between days 0 and 14, FIGS. 2b and 2c): greatest decrease
change in body weight ([2]; high dose, FIG. 3b): greatest decrease
change in fat mass ([2]; high dose, FIG. 3c): greatest decrease
change in lean muscle mass ([2]; high dose, FIG. 3d): least amount of change
changes in blood glucose ([2]; high dose, between days 0 and 14, FIG. 3e): greatest decrease

GLP-1(Aib^2E^16K^40Cex)/Estrogen(3-ether) (H[Aib]EGTFTSDVSSYLEEQAAKEFIAWLVKGGPSSGAPPPSK-NH2; not fully specified (residue 40)) [SEQ ID NO: 1651]
change in blood glucose [2]: greatest change
change in blood glucose levels ([2]; between days 0 and 7, FIG. 6c): greatest change
change in blood glucose levels [2, 7]: greater change
total body weight [2, 8]: greatest decrease
blood glucose levels ([2]; over a period of 7 days): greatest decrease
change in blood glucose levels [4]: greater change in blood glucose levels

GLP-1(Aib^2E^16K^40Cex)/Estrogen(17-ester) (H[Aib]EGTFTSDVSSYLEEQAAKEFIAWLVKGGPSSGAPPPSK-NH2; not fully specified (residue 40)) [SEQ ID NO: 1655]
change in blood glucose levels ([2]; between days 0 and 7, FIG. 6c): greatest change
change in blood glucose levels [2, 7]: greater change
total body weight [2, 8]: greatest decrease
blood glucose levels ([2]; over a period of 7 days): greatest decrease
change in blood glucose levels [4]: greater change in blood glucose levels

GLP-1(Aib^2E^16Cex K^40)/Estrogen(3-ester) (H[Aib]EGTFTSDVSSYLEEQAAKEFIAWLVKGGPSSGAPPPSK-NH2; not fully specified (residue 40)) [SEQ ID NO: 1658]
change in blood glucose levels ([2]; between days 0 and 7, FIG. 8b): greatest change

d-amino acid containing GLP-1/Estrogen ester conjugate: d-amino acid containing GLP-1/Estrogen conjugate, estrogen covalently linked as ester that was unstable in vivo ([dA][Aib][dE]G[dT][dF][dT][dS][dD][dV][dS][dS][dY][dL][dE]G[dQ][dA][dA][dK][dE][dA][dI][dA][dW][dL][dV][dK]GG[dP][dS][dS]G[dA][dP][dP][dP][dS]K-NH2; not fully specified (residue 40))
total body weight ([2]; FIG. 10a): greatest decrease
change in blood glucose levels ([2]; between days 0 and 7, vs comparable d-amino acid peptide with stable estrogen conjugate, FIG. 10b): greater change

GLP-1(Aib^2A^22CexK^40)/Estrogen(17-ester): A22 GLP-1 analog conjugated to estrogen by 17-ester (H[Aib]EGTFTSDVSSYLEGQAAKEAIAWLVKGGPSSGAPPPSK-NH2; not fully specified (residue 40))
change in body weight [5, 9]: greater decrease in body weight then mice that were administered GLP-1 alone
cumulative food intake ([5]; high dose, 23 days): consumed less food than those that were administered GLP-1 alone
blood glucose levels [5, 10]: greatest decrease in blood glucose levels
change in body weight [6, 9]: greatest decrease in body weight
cumulative food intake ([6]; high dose, 23 days): consumed the least amount of food
change in fat mass ([6]; high dose, after 23 days): greatest decrease in body weight and fat mass
change in lean muscle mass ([6]; high dose, after 23 days): least amount of lean muscle mass loss
change blood glucose [6, 10]: greatest decrease in blood glucose levels
